Test results reported in US10391095B2, “DNA-PK inhibitors” (Vertex Pharmaceuticals Incorporated, priority 2012, dated 2019).

Key:
DNA-PK = DNA-PK (Homo sapiens, UniProt P78527); experiment: DNA-PK inhibition assay (radiometric, 33P-ATP); assay type: biochemical; settings: 100 μM ATP, competitive tight-binding fit
Method in brief: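 Approx. 6 nM DNA-PK with 10 µg/mL sheared dsDNA, 0.8 mg/mL peptide substrate and 100 µM 33P-ATP in HEPES pH 7.5, 10 mM MgCl2; 45 min, phosphoric acid quench. Phosphopeptide captured on filter plates and counted by scintillation; Ki from a competitive tight-binding model fit.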

[1] = test system: DNA-PK null SCID mouse cell line; experiment: Cell viability following irradiation (CellTiter-Glo); assay type: cell-based; settings: single agent or in combination with radiation
Method: (§1) To evaluate the radiosensitizing effects of compounds of the invention in combination with ionizing radiation (IR), a broad panel of cell lines across multiple tumor types and genetic backgrounds were tested. Cells were incubated with DMSO or compound 578 for 30 minutes and then exposed to various doses of radiation (0, 0.5, 1, 2, 4, 6, 8, and 16 Gy). Cell viability was assessed at 6 days using CellTiter-Glo® (Promega, Inc).

H2009 = experiment: as above; assay type: cell-based; settings: compound 2.1 μM + IR, 6 days, DMSO 7.6 Gy
Method: as §1

Row | Compound | Ki (DNA-PK) | effect on cell viability [1] | EC50 IR (H2009)
1 | CNC(=O)c1ccnc2c([C@H](C)CNc3cc(-c4cnc(C)nc4)ncn3)cccc12 [Compound 578, (S)—N-methyl-8-(1-((2′-methyl-[4,5′-bipyrimidin]-6-yl)amino)propan-2-yl)quinoline-4-carboxamide] | < 30 nM | minimal effect on cell viability | 2.5 Gy
2 | COc1ccccc1CCNc1cc(-c2ccc(N3CCCC3)nc2)ncn1 [Compound 46] | < 30 nM | – | –
